Values after ≈ are worked out from the molar mass of the structure shown.
What was measured:
[1] = Thermodynamic solubility of the compound in phosphate buffer at pH 7.4 at 25 degC after 24 hrs; settings: read-out: Therm_solubility
[2] = Half life in rat; assay type: ADME, organism-based; settings: in vivo
[3] = Clearance in rat at 2 mg/kg, iv; assay type: ADME, organism-based; parameters: dose 2 mg/kg, route intravenous; settings: in vivo
[4] = Volume of distribution at steady state in rat at 2 mg/kg, iv and 5 mg/kg, po; assay type: ADME, organism-based; settings: in vivo, read-out: Vdss
Cytochrome P450 3A4 = Cytochrome P450 3A4 (Homo sapiens, UniProt P08684); experiment: Inhibition of human CYP3A4; assay type: ADME
Sequence of Cytochrome P450 3A4 (P08684 whole entry): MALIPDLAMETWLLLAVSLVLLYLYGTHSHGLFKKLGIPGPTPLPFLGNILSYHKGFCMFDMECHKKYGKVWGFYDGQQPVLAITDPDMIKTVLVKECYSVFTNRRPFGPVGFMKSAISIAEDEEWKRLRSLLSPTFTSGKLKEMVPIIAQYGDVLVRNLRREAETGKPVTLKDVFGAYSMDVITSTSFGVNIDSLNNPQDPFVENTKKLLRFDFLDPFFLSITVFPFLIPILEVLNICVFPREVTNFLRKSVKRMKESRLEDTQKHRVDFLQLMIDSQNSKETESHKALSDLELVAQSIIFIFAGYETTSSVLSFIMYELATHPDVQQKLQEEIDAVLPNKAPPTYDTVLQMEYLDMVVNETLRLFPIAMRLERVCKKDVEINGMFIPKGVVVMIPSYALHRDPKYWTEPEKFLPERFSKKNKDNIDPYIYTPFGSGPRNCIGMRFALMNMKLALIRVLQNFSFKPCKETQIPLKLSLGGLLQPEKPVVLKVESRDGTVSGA

Cavia porcellus = experiment: Inhibition of cartilage loss in Dunkin Hartley guinea pig spontaneous osteoarthritis model at 0.06 mg/kg/day, sc after 12 weeks (reference value: 23%); assay type: functional; settings: 2016 h, route subcutaneous
[5] = Oral bioavailability in rat at 3 to 10 mg/kg; assay type: ADME, organism-based; settings: in vivo
in vitro [6] = settings: human, liver microsomes
[7] = Oral bioavailability in rat at 5 mg/kg; assay type: ADME, organism-based; settings: in vivo
[8] = Fraction unbound in dog plasma; assay type: ADME, cell-free, Canis lupus familiaris
[9] = Apparent permeability across basolateral to apical side in human Caco2 cells at 10 uM; assay type: ADME, cell-based; settings: Caco-2
[10] = Fraction unbound in human plasma; assay type: ADME, cell-free
[11] = Volume of distribution at steady state in dog at 0.5 mg/kg, iv and 1 mg/kg, po; assay type: ADME, organism-based, Canis lupus familiaris; settings: in vivo, read-out: Vdss
[12] = Solubility of compound in fasted state simulated intestinal fluid; assay type: physicochemical
[13] = Half life in rat at 2 mg/kg, iv and 5 mg/kg, po; assay type: ADME, organism-based; settings: in vivo
[14] = Oral bioavailability in dog at 1 mg/kg; assay type: ADME, organism-based, Canis lupus familiaris; settings: in vivo
[15] = Fraction unbound in rat plasma; assay type: ADME, cell-free
[16] = Half life in dog at 0.5 mg/kg, iv and 1 mg/kg, po; assay type: ADME, organism-based, Canis lupus familiaris; settings: in vivo
[17] = Clearance in dog at 0.5 mg/kg, iv and 1 mg/kg, po; assay type: ADME, organism-based, Canis lupus familiaris; settings: in vivo
[18] = Clearance in rat at 2 mg/kg, iv and 5 mg/kg, po; assay type: ADME, organism-based; settings: in vivo
physchem = settings: buffer, pH 7.4
[19] = Intrinsic clearance in human hepatocytes measured per 10^6 cells; assay type: ADME, cell-based, Hepatocyte; settings: read-out: CLH
in vitro [20] = settings: human, Caco-2
[21] = target: Matrix metalloproteinase-14 (Homo sapiens, UniProt P50281)

**Q.** With `C[C@]1(CS(=O)(=O)N2CCN(c3ncc(OCc4cc(C(F)(F)F)no4)cn3)CC2)NC(=O)NC1=O` as the molecule, how does the solubility thermodynamic at 24 h [1] read?
**A.** 3.1 µM (≈ 1.61 µg/mL)

**Q.** And the half-life [2]?
**A.** 3.3 h

**Q.** What about the clearance [3] of the same molecule?
**A.** 0.564 L/h/kg

**Q.** And the Vd [4]?
**A.** 0.5 L/kg

**Q.** Which IC50 (Cytochrome P450 3A4) does the source give for `O=CN(O)[C@@H](CCCc1ncccn1)CS(=O)(=O)N1CCN(c2ccc(C(F)(F)F)cn2)CC1` here?
**A.** 1 µM

**Q.** Which inhibition in vivo at 0.06 mg/kg/day (Cavia porcellus) does the source give for `O=CN(O)[C@@H](CCc1ncccn1)CS(=O)(=O)N1CCN(c2ccc(OCC(F)(F)F)cn2)CC1` here?
**A.** 76%

**Q.** With `C[C@]1(CS(=O)(=O)N2CCC(Oc3ccc(OCc4ncccn4)cc3)CC2)NC(=O)NC1=O` as the molecule, how does the solubility thermodynamic at 24 h [1] read?
**A.** 560 µM (≈ 266 µg/mL)

**Q.** With `Cc1cc(COc2cnc(N3CCN(S(=O)(=O)C[C@@]4(C)NC(=O)NC4=O)CC3)nc2)n(C)n1` as the molecule, how does the solubility thermodynamic at 24 h [1] read?
**A.** 32 µM (≈ 15.3 µg/mL)

**Q.** For `C[C@]1(CS(=O)(=O)N2CCN(c3ncc(OCc4cncs4)cn3)CC2)NC(=O)NC1=O`, which solubility thermodynamic at 24 h [1] is on record?
**A.** 49 µM (≈ 22.9 µg/mL)

**Q.** What does the source list for `Cc1cc(COc2cnc(N3CCN(S(=O)(=O)C[C@@]4(C)NC(=O)NC4=O)CC3)nc2)on1`?
**A.** bioavailability [5]: 37%; solubility thermodynamic at 24 h [1]: 13 µM (≈ 6.05 µg/mL); half-life [2]: 0.67 h; microsomal CLint (in vitro [6]): < 2 µL/min/mg; clearance [3]: 0.804 L/h/kg; Vd [4]: 0.5 L/kg

**Q.** Which microsomal CLint (in vitro [6]) does the source give for `CCc1cc(COc2cnc(N3CCN(S(=O)(=O)C[C@@]4(C)NC(=O)NC4=O)CC3)nc2)on1` here?
**A.** < 2 µL/min/mg

**Q.** With `C[C@]1(CS(=O)(=O)N2CCN(c3ncc(OCc4ccc(C(F)(F)F)o4)cn3)CC2)NC(=O)NC1=O` as the molecule, how does the bioavailability [7] read?
**A.** 100%

**Q.** What about the fraction unbound [8] of the same molecule?
**A.** 0.08

**Q.** And the bioavailability [5]?
**A.** 100%

**Q.** What about the Papp B→A at 10 µM [9] of the same molecule?
**A.** 520 nm/s

**Q.** And the fraction unbound [10]?
**A.** 0.06

**Q.** What about the Vd [11] of the same molecule?
**A.** 1.2 L/kg

**Q.** What about the solubility thermodynamic at 24 h [1] of the same molecule?
**A.** 11 µM (≈ 5.7 µg/mL)

**Q.** What about the solubility [12] of the same molecule?
**A.** 26.5 µM (≈ 13.7 µg/mL)

**Q.** And the half-life [13]?
**A.** 2.6 h

**Q.** What about the half-life [2] of the same molecule?
**A.** 2.6 h

**Q.** And the bioavailability [14]?
**A.** 51%

**Q.** What about the fraction unbound [15] of the same molecule?
**A.** 0.08

**Q.** What about the half-life [16] of the same molecule?
**A.** 10.6 h

**Q.** And the clearance [17]?
**A.** 0.078 L/h/kg

**Q.** What about the microsomal CLint (in vitro [6]) of the same molecule?
**A.** 7 µL/min/mg

**Q.** And the clearance [3]?
**A.** 0.378 L/h/kg

**Q.** What about the clearance [18] of the same molecule?
**A.** 0.378 L/h/kg

**Q.** What about the logD (physchem) of the same molecule?
**A.** 2.3

**Q.** What about the Vd [4] of the same molecule?
**A.** 1.3 L/kg

**Q.** What about the hepatocyte CLint [19] of the same molecule?
**A.** < 2 µL/min/1e6 cells

**Q.** And the Papp A→B at 10 µM (in vitro [20])?
**A.** 90 nm/s

**Q.** What does the source list for `C[C@]1(CS(=O)(=O)N2CCN(c3ncc(OCc4cnc(C#N)s4)cn3)CC2)NC(=O)NC1=O`?
**A.** bioavailability [5]: 6%; solubility thermodynamic at 24 h [1]: 14 µM (≈ 6.9 µg/mL); half-life [2]: 0.23 h; microsomal CLint (in vitro [6]): 16 µL/min/mg; clearance [3]: 5.84 L/h/kg; Vd [4]: 0.5 L/kg

**Q.** Which IC50 [21] does the source give for `CCCOc1ccc(OC2CCN(S(=O)(=O)C[C@@]3(C)NC(=O)NC3=O)CC2)cc1` here?
**A.** > 10 µM

**Q.** Which solubility thermodynamic at 24 h [1] does the source give for `C[C@]1(CS(=O)(=O)N2CCC(Oc3ccc(OCc4ccccc4)cc3)CC2)NC(=O)NC1=O` here?
**A.** < 0.8 µM

**Q.** What does the source list for `C[C@]1(CS(=O)(=O)N2CCC(Oc3ccc(OCc4ccc(S(C)(=O)=O)cc4)cc3)CC2)NC(=O)NC1=O`?
**A.** solubility thermodynamic at 24 h [1]: 3.1 µM (≈ 1.71 µg/mL); IC50 [21]: 0.062 µM

**Q.** With `C[C@]1(CS(=O)(=O)N2CCC(Oc3ccc(OCc4ccc(C#N)cc4)cc3)CC2)NC(=O)NC1=O` as the molecule, how does the solubility thermodynamic at 24 h [1] read?
**A.** 1.8 µM (≈ 0.897 µg/mL)

**Q.** With `C[C@]1(CS(=O)(=O)N2CCC(Oc3ccc(OCc4cccc(C#N)c4)cc3)CC2)NC(=O)NC1=O` as the molecule, how does the solubility thermodynamic at 24 h [1] read?
**A.** 4.4 µM (≈ 2.19 µg/mL)

**Q.** With `COc1ccc(COc2ccc(OC3CCN(S(=O)(=O)C[C@@]4(C)NC(=O)NC4=O)CC3)cc2)cc1` as the molecule, how does the solubility thermodynamic at 24 h [1] read?
**A.** 1.2 µM (≈ 0.604 µg/mL)

**Q.** What about the IC50 [21] of the same molecule?
**A.** 1.08 µM

**Q.** For `C[C@]1(CS(=O)(=O)N2CCC(Oc3ccc(OCc4ccc(F)cc4)cc3)CC2)NC(=O)NC1=O`, which IC50 [21] is on record?
**A.** 7.73 µM

**Q.** For `C[C@]1(CS(=O)(=O)N2CCC(Oc3ccc(OCc4ccncc4)cc3)CC2)NC(=O)NC1=O`, which solubility thermodynamic at 24 h [1] is on record?
**A.** 130 µM (≈ 61.7 µg/mL)

Reference: ChEMBL document CHEMBL2407043, “Hydantoin based inhibitors of MMP13--discovery of AZD6605” (Bioorg Med Chem Lett, 2013)
